Source: patent US20260248879A1, “METHODS OF USING A GCG/GLP1 CO-AGONIST FOR THERAPY” (ELI LILLY AND COMPANY, priority 2022, published 2026)

Tests used:
patients with T2DM [1] = assay: Phase 1 multiple-ascending dose study in T2DM (Example 1): body weight, waist circumference, body composition; type: in vivo, human
Source text: This study is a Phase 1, single-site, patient- and investigator-blinded, placebo controlled, randomized, non-crossover, multiple-ascending dose study with titration in each cohort in patients with T2DM to investigate the safety, tolerability, PK, and PD of the GLP-1/glucagon co-agonist peptide of SEQ ID NO:1 (Compound 1) administered as multiple SC injections QW for 12 weeks in Cohort 1 and 16 weeks in Cohort 2.
The first dosing regimen (also referred to as Cohort 1) is 12 weeks in duration and requires dose increments of 1.5 mg starting from 1.5 mg: • 1.5 mg QW Compound 1 for 4 weeks; • 3.0 mg QW Compound 1 for 4 weeks; and • 4.5 mg QW Compound 1 for 4 weeks.
The second dosing regimen (also referred to as Cohort 2) is 16 weeks in duration and requires dose increments of 2 mg starting from 2 mg: • 2 mg QW Compound 1 for 3 weeks; • 4 mg QW Compound 1 for 3 weeks; • 6 mg QW Compound 1 for 3 weeks; • 8 mg QW Compound 1 for 3 weeks; and • 10 mg QW Compound 1 for 4 weeks.
In respect of each dosing regimen, Compound 1 is administered SC into the abdomen of the patient after an overnight fast for at least 8 hours.
In respect of Cohort 1, body weight is measured at baseline and Days 1, 8, 15, 22, 29, 36, 43, 50, 57, 64, 71 and 78.
Wherever possible, the same scale is used for all weight measurements throughout the study and the scale is not moved or recalibrated. Subjects are weighed in light clothing at approximately the same time in the morning before dosing (on Day 1 only) and after an overnight fast and evacuation of bowel and the bladder, if possible. During the treatment period, weight is measured twice on each scheduled occasion, with the subject stepping off the scale between measurements. The average of the two weight measurements is recorded in the source document.
In respect of Cohort 1, waist circumference is measured at baseline and Days 1, 8, 15, 22, 29, 36, 43, 50, 57, 64, 71 and 78.
Waist circumference is measured at the midpoint between the lower margin of the least palpable rib and the top of the iliac crest. The patient stands with feet close together, arms at the side and body weight evenly distributed, and should wear little clothing. The patient should be relaxed, and the measurements should be taken at the end of a normal expiration. During screening, baseline, the treatment period, and at follow-up, waist circumference will be measured twice on each scheduled occasion. The average of the two measurements will be recorded in the source document.

patients with T2DM [2] = assay: Example 1 study: adverse events; type: in vivo
Source text: Investigators are responsible for monitoring the safety of patients who have entered this study. The investigator is responsible for the appropriate medical care of patients during the study. Investigators document their review of each laboratory safety report. The investigator remains responsible for following, through an appropriate health care option,
AEs that are serious or otherwise medically important, considered related to Compound 1 or the study, or that caused the patient to discontinue Compound 1 before completing the study. The patient is followed until the event resolves, stabilizes with appropriate diagnostic evaluation, or is reasonably explained. The frequency of follow-up evaluations of the AE is left to the discretion of the investigator.
The investigator records all relevant AE and SAE information. After receiving consent from the patient, study site personnel record the occurrence and nature of each patient's preexisting conditions, including clinically significant signs and symptoms of the disease under treatment in the study. Additionally, site personnel record any change in the condition(s) and the occurrence and nature of any AEs.
The investigator interprets and document whether or not an AE has a reasonable possibility of being related to study treatment, or a study procedure, taking into account the disease, concomitant treatment, or pathologies.
A “reasonable possibility” means that there is a potential cause and effect relationship between Compound 1, study device, and/or study procedure and the AE. Planned surgeries should not be reported as AEs unless the underlying medical condition has worsened during the course of the study.
A Serious Adverse Event (SAE) is any AE from this study that results in one of the following: • death • initial or prolonged inpatient hospitalization • a life-threatening experience (i.e., immediate risk of dying) • persistent or significant disability/incapacity • congenital anomaly/birth defect • important medical events that may not be immediately life-threatening or result in death or hospitalization but may jeopardize the patient or may require intervention to prevent one of the other outcomes listed in the definition above.
All AEs occurring after signing the ICF are recorded and assessed for serious criteria.

[3] = Cohort 1 (1.5-4.5 mg QW), D78-80, baseline 59.0
[4] = Cohort 1, escalated to 4.5 mg, Day 78
[5] = Cohort 2 (2-10 mg QW), D106-108, baseline 60.1
[6] = Cohort 2, Day 134 (after end of dosing)
[7] = Cohort 2, Day 162 (after end of dosing)
[8] = Cohort 2, escalated to 4.0 mg, Day 43
[9] = Cohort 2, escalated to 6.0 mg, Day 64
[10] = Cohort 2, escalated to 8.0 mg, Day 85
[11] = Cohort 2, escalated to 10 mg, Day 109

## CC(C)C[C@H](NC(=O)[C@H](CC(C)C)NC(=O)[C@H](Cc1c[nH]c2ccccc12)NC(=O)[C@H](CCC(=O)O)NC(=O)[C@@H](NC(=O)[C@H](Cc1ccccc1)NC(=O)[C@H](CCC(=O)O)NC(=O)[C@H](CCCCNC(=O)COCCOCCNC(=O)COCCOCCNC(=O)CC[C@H](NC(=O)CCCCCCCCCCCCCCCCCCC(=O)O)C(=O)O)NC(=O)[C@H](C)NC(=O)[C@H](CCCCN)NC(=O)[C@H](CCCCN)NC(=O)[C@H](CCC(=O)O)NC(=O)[C@H](CC(=O)O)NC(=O)[C@H](CC(C)C)NC(=O)[C@H](Cc1ccc(O)cc1)NC(=O)[C@H](CCCCN)NC(=O)[C@H](CO)NC(=O)[C@H](Cc1ccc(O)cc1)NC(=O)[C@H](CC(=O)O)NC(=O)[C@H](CO)NC(=O)[C@@H](NC(=O)[C@H](Cc1ccccc1)NC(=O)[C@@H](NC(=O)CNC(=O)[C@H](CCC(N)=O)NC(=O)C(C)(C)NC(=O)[C@@H](N)Cc1c[nH]cn1)[C@@H](C)O)[C@@H](C)O)C(C)C)C(=O)N[C@@H](CCC(=O)O)C(=O)NCC(=O)NCC(=O)N1CCC[C@H]1C(=O)N[C@@H](CO)C(=O)N[C@@H](CO)C(=O)NCC(N)=O [Compound 1]
Patients with T2DM [1]; [3]
  Lean body Mass: 59.4 kg
  Lean body mass: 59.4 kg
Patients with T2DM [1]; Cohort 1 (1.5-4.5 mg QW), D78-80, baseline 60.9%
  % Lean body mass: 64.3%
Patients with T2DM [1]; Cohort 1 (1.5-4.5 mg QW), D78-80, baseline 110.4
  Waist circumference: 105.7 cm
Patients with T2DM [1]; Cohort 1 (1.5-4.5 mg QW), Day 78
  mean change from baseline in body weight: −2.88 kg at Day 78
Patients with T2DM [1]; [4]
  body weight, mean percent change from baseline: −3.03%
  waist circumference, approximate reduction from baseline: ~3%
Patients with T2DM [1]; Cohort 1, escalated to 4.5 mg, Day 78, baseline 97.19
  mean body weight: 94.0 kg
Patients with T2DM [1]; Cohort 1, escalated to 4.5 mg, Day 78, baseline 108.66
  mean waist circumference: 105.66 cm
Patients with T2DM [1]; [5]
  Lean body Mass: 56.4 kg
  Lean body mass: 56.4 kg
Patients with T2DM [1]; Cohort 2 (2-10 mg QW), D106-108, baseline 63.0%
  % Lean body mass: 67.8%
Patients with T2DM [1]; Cohort 2 (2-10 mg QW), D106-108, baseline 108.6
  Waist circumference: 96.7 cm
Patients with T2DM [1]; Cohort 2 (2-10 mg QW), Day 50 through Day 162
  body weight decrease from baseline compared to placebo: statistically significant decreases
Patients with T2DM [1]; Cohort 2 (2-10 mg QW), Day 109
  mean change from baseline in body weight: −10.73 kg at Day 109.
Patients with T2DM [1]; Cohort 2, Day 134 (after end of 16 weeks dosing), baseline 94.9
  mean body weight: 84.05 kg
Patients with T2DM [1]; [6]
  body weight, mean percent change from baseline: −11.14%
  waist circumference, approximate reduction from baseline: ~9%
Patients with T2DM [1]; Cohort 2, Day 134 (after end of dosing), baseline 106.93
  mean waist circumference: 97.59 cm
Patients with T2DM [1]; [7]
  body weight, mean percent change from baseline: −6.56%
  waist circumference, approximate reduction from baseline: ~4%
Patients with T2DM [1]; Cohort 2, Day 162 (after end of dosing), baseline 94.9
  mean body weight: 88.96 kg
Patients with T2DM [1]; Cohort 2, Day 162 (after end of dosing), baseline 106.93
  mean waist circumference: 102.79 cm
Patients with T2DM [1]; [8]
  body weight, mean percent change from baseline: −4.04%
  waist circumference, approximate reduction from baseline: ~3%
Patients with T2DM [1]; Cohort 2, escalated to 4.0 mg, Day 43, baseline 94.9
  mean body weight: 90.38 kg
Patients with T2DM [1]; Cohort 2, escalated to 4.0 mg, Day 43, baseline 106.93
  mean waist circumference: 103.38 cm
Patients with T2DM [1]; [9]
  body weight, mean percent change from baseline: −7.07%
  waist circumference, approximate reduction from baseline: ~5%
Patients with T2DM [1]; Cohort 2, escalated to 6.0 mg, Day 64, baseline 94.9
  mean body weight: 87.69 kg
Patients with T2DM [1]; Cohort 2, escalated to 6.0 mg, Day 64, baseline 106.93
  mean waist circumference: 101.31 cm
Patients with T2DM [1]; [10]
  body weight, mean percent change from baseline: −9.05%
  waist circumference, approximate reduction from baseline: ~8%
Patients with T2DM [1]; Cohort 2, escalated to 8.0 mg, Day 85, baseline 94.9
  mean body weight: 85.88 kg
Patients with T2DM [1]; Cohort 2, escalated to 8.0 mg, Day 85, baseline 106.93
  mean waist circumference: 98.58 cm
Patients with T2DM [1]; [11]
  body weight, mean percent change from baseline: −12.71%
  waist circumference, approximate reduction from baseline: ~10%
Patients with T2DM [1]; Cohort 2, escalated to 10 mg, Day 109, baseline 94.9
  mean body weight: 82.55 kg
Patients with T2DM [1]; Cohort 2, escalated to 10 mg, Day 109, baseline 106.93
  mean waist circumference: 96.56 cm
Patients with T2DM [1]; dose 10 mg or greater
  body weight reduction: greater than 12%
Patients with T2DM [1]; dose greater than 6 mg
  body weight reduction: greater than 9%
Patients with T2DM [1]; dose greater than 6.0 mg
  reduction in waist circumference: greater than 5%
Patients with T2DM [2]; in vivo
  SAE reported, MedDRA preferred term: Sarcoidosis
  abdominal pain, number of participants: 1
  abdominal pain, percentage of participants: 5.6%
  constipation, number of participants: 2
  constipation, percentage of participants: 11.1%
  diarrhea, number of participants: 4
  diarrhea, percentage of participants: 22.2%
  eructation, number of participants: 4
  eructation, percentage of participants: 22.2%
  nausea, number of participants: 7
  nausea, percentage of participants: 38.9%
  number of patients treated with study intervention reporting an SAE: 1
  number of patients with TEAEs: 17
  vomiting, number of participants: 5
  vomiting, percentage of participants: 27.8%
Patients with T2DM [2]; whole study
  deaths: No deaths occurred
